In test [1] the target is T1, cGAS (Homo sapiens, UniProt Q8N884). Put plainly: Cellular assay to measure cGAS activity (IFNb AlphaLISA in THP1 cells stimulated by RDG-Adenovirus-GFP). Format: cell-based. On the set-up: host or cells: THP1 cells differentiated with PMA and stimulated with RDG-Adenovirus-GFP. Conditions: PMA-differentiated THP1 cells, RDG-Adenovirus-GFP at 1000 MOI; inhibition of IFNb production as marker for cGAS activity. In short, it runs like this: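 The readout is secreted IFNb measured by AlphaLISA after overnight compound exposure. THP1 cells, differentiated with PMA for 24 h and rested overnight, were infected with RDG-Adenovirus-GFP (1000 MOI, 4 h) before compounds were added; IC50 came from a 4-parameter logistic fit of inhibition against log concentration.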
T1 sequence (Q8N884 whole entry): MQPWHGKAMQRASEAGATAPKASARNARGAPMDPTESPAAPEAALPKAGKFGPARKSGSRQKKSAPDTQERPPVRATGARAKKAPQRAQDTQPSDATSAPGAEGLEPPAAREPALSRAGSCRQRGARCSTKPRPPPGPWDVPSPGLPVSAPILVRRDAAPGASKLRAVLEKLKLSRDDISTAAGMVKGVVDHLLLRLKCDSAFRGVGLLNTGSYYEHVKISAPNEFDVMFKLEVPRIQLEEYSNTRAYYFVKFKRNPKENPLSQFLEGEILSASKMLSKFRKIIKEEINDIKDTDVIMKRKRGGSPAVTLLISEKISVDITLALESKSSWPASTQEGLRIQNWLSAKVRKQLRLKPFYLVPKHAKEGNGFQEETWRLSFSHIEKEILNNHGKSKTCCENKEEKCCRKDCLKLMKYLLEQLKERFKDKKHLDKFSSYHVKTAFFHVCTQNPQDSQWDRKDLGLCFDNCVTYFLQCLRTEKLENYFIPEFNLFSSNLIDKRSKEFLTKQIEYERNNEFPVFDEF
A general note: In Alpha technology, singlet oxygen from a donor bead excites a nearby acceptor bead.

The target in test [2] is T1, cGAS. Briefly: In vitro inhibition assay of cGAS activity (cGAMP production, RapidFire mass spectrometry). Format: biochemical. The arrangement: Insert cDNA encoding full-length of human cGAS; His6; made in house; host or cells: E. coli BL21(DE3). Particulars: 10 nM recombinant human cGAS, 60 nM 75-bp dsDNA, 50 μM ATP, 50 μM GTP, 3 hrs. In short, it runs like this:
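Reactions in 10 mM Tris-Cl pH 7.5, 5 mM MgCl2, 0.01% Triton X-100 contained serially diluted compound, 10 nM recombinant cGAS, dsDNA activator and 50 μM each of ATP and GTP, run 3 hrs at ambient temperature. After formic acid quench, cGAMP output was measured by mass spectrometry and percent inhibition versus log concentration was fitted for IC50.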

Where only a bound is given, the exact number is not on record here.

A word on the IC50: it is the concentration at which inhibition is half-maximal.

As for `C[C@@H]1C(=O)NCCc2c1c1c(NC(=O)CO)cc(Cl)c(Cl)c1n2C` (single isomer, unassigned) [Example 92], the results for the IC50 in test [1] and in test [2] were 259 nM and 17.3 nM, respectively.

As for `CC1C(=O)NCCc2[nH]c3c(Cl)c(Cl)cc(NCc4cocn4)c3c21` (stereo in doubt) [Example 59, (S′)-7,8-Dichloro-1-methyl-10-((oxazol-4-ylmethyl)amino)-3,4,5,6-tetrahydroazepino[4,5-b]indol-2(1H)-one Or (R)-7,8-Dichloro-1-methyl-10-((oxazol-4-ylmethyl)amino)-3,4,5,6-tetrahydroazepino[4,5-b]indol-2(1H)-one], the IC50 in test [1] is over 10000 nM; in test [2] it was 2000 nM.

Consider `CC1C(=O)NCCc2[nH]c3c(Cl)c(Cl)cc(OCCO)c3c21` (centres unmarked) [Example 18, 7,8-Dichloro-10-(2-hydroxyethoxy)-1-methyl-3,4,5,6-tetrahydroazepino[4,5-b]indol-2(1H)-one], for which the results for the IC50 in test [1] and in test [2] were 2070 nM and 70.9 nM, respectively.

For the compound `COCC[C@@H]1CNC(=O)Cc2c1[nH]c1c(Cl)c(Cl)cc(-c3cnn(C)n3)c21` (single isomer, unassigned) [Example 167], the IC50 in test [1] was 624 nM; in test [2] it was 12.8 nM.

In the case of `O=C1Cc2c([nH]c3c(Cl)c(Cl)cc(NCCCO)c23)CCN1` [Example 22, 7,8-Dichloro-10-((3-hydroxypropyl)amino)-3,4,5,6-tetrahydroazepino[4,5-b]indol-2(1H)-one], the IC50 was 4580 nM in test [1] and 45.9 nM in test [2].

Turning to `Cn1ncc(-c2cc(Cl)c(Cl)c3[nH]c4c(c23)CC(=O)NC[C@H]4CC(C)(F)F)n1` (single isomer, unassigned) [Example 137], the IC50 was over 10000 nM in test [1] and 683 nM in test [2].

Consider `CC1C(=O)NCCc2[nH]c3c(Cl)c(Cl)cc(NC(=O)C4CCO4)c3c21` (centres unmarked) [Example 44, N-(7,8-Dichloro-1-methyl-2-oxo-1,2,3,4,5,6-hexahydroazepino[4,5-b]indol-10-yl)oxetane-2-carboxamide], for which the figures for the IC50 in test [1] and in test [2] were 2790 nM and 38.9 nM, respectively.

In the case of `C[C@H]1C(=O)NCC(C)(C)c2[nH]c3c(Cl)c(Cl)cc(NC(=O)CO)c3c21` (single isomer, unassigned) [Example 132], the values for the IC50 in test [1] and in test [2] were over 10000 nM and at least 39800 nM, respectively.

As for `CCNc1cc(Cl)c(Cl)c2[nH]c3c(c12)CC(=O)NCC3` [Example 30, 7,8-Dichloro-10-(ethylamino)-3,4,5,6-tetrahydroazepino[4,5-b]indol-2(1H)-one], the IC50 in test [1] was found to be 3730 nM; in test [2], 119 nM.

As for `CC1C(=O)NCCc2[nH]c3c(Cl)c(Cl)cc(N[C@H]4CCOC4)c3c21` (mixture of isomers) [Example 61, 7,8-Dichloro-1-methyl-10-(((S)-tetrahydrofuran-3-yl)amino)-3,4,5,6-tetrahydroazepino[4,5-b]indol-2(1H)-one], the figures for the IC50 in test [1] and in test [2] were 1910 nM and 34.5 nM, respectively.

For `COCC(=O)Nc1cc(Cl)c(Cl)c2[nH]c3c(c12)C(C)C(=O)NCC3` (centres unmarked) [Example 39, N-(7,8-Dichloro-1-methyl-2-oxo-1,2,3,4,5,6-hexahydroazepino[4,5-b]indol-10-yl)-2-methoxyacetamide], the values for the IC50 in test [1] and in test [2] were 892 nM and 54.4 nM, respectively.

Consider `COCCNc1cc(Cl)c(Cl)c2[nH]c3c(c12)[C@@H](C)C(=O)NCC3` (single isomer, unassigned) [Example 47], for which the IC50 came to 596 nM in test [1] and 20.1 nM in test [2].

`C[C@H]1C(=O)NCCc2[nH]c3c(Cl)c(Cl)cc(NCC(F)(F)CO)c3c21` (single isomer, unassigned) [Example 69, (R)-7,8-Dichloro-10-((2,2-difluoro-3-hydroxypropyl)amino)-1-methyl-3,4,5,6-tetrahydroazepino[4,5-b]indol-2(1H)-one or (S)-7,8-Dichloro-10-((2,2-difluoro-3-hydroxypropyl)amino)-1-methyl-3,4,5,6-tetrahydroazepino[4,5-b]indol-2(1H)-one]: the IC50 was over 10000 nM in test [1] and 630 nM in test [2].

On to `Cn1ncc(-c2cc(Cl)c(Cl)c3c2c2c4n3CCC4CNC(=O)C2)n1` (centres unmarked) [Example 116, 8,9-Dichloro-11-(2-methyl-2H-1,2,3-triazol-4-yl)-1,3,4,4a, 5,6-hexahydro-2H-azepino[3,4,5-gh]benzo[b]pyrrolizin-2-one], for which the IC50 in test [1] is 640 nM; in test [2], 14.8 nM.

As to `C[C@H](O)C(=O)Nc1cc(Cl)c(Cl)c2c1c1c(n2C)CCNC(=O)[C@H]1C` (single isomer, unassigned) [Example 95], the IC50 in test [1] is at least 10000 nM; in test [2] it was 7580 nM.

For `CC(C)(O)C[C@@H]1CNC(=O)Cc2c1[nH]c1c(Cl)c(Cl)cc(CC#N)c21` (single isomer, unassigned) [Example 107], the IC50 is 649 nM in test [1] and 12.5 nM in test [2].

Regarding `Cn1c2c(c3c(OCC#N)cc(Cl)c(Cl)c31)CC(=O)NC[C@H]2CC(C)(C)O` (single isomer, unassigned) [Example 111, (R)-2-((7,8-Dichloro-5-(2-hydroxy-2-methylpropyl)-6-methyl-2-oxo-1,2,3,4,5,6-hexahydroazepino[4,5-b]indol-10-yl)oxy)acetonitrile or (S)-2-((7,8-Dichloro-5-(2-hydroxy-2-methylpropyl)-6-methyl-2-oxo-1,2,3,4,5,6-hexahydroazepino[4,5-b]indol-10-yl)oxy)acetonitrile], the IC50 in test [1] amounted to 231 nM; in test [2], 13.1 nM.

For `Cn1c2c(c3c(CC#N)cc(Cl)c(Cl)c31)CC(=O)NC[C@H]2CC(C)(C)O` (single isomer, unassigned) [Example 130], the IC50 in test [1] is 205 nM; in test [2] it was 12.3 nM.

As for `C[C@@H](O)CNc1cc(Cl)c(Cl)c2c1c1c(n2C)CCNC(=O)[C@@H]1C` (single isomer, unassigned) [Example 101], the IC50 is over 10000 nM in test [1] and 1260 nM in test [2].

Regarding `CC1C(=O)NCCc2[nH]c3c(Cl)c(Cl)cc(NCCO)c3c21` (single isomer, unassigned) [Example 50, 7,8-Dichloro-10-((2-hydroxyethyl)amino)-1-methyl-3,4,5,6-tetrahydroazepino[4,5-b]indol-2(1H)-one], the figures for the half-maximal inhibitory concentration (IC50) in test [1] and in test [2] were 286 nM and 9.62 nM, respectively.

With `C[C@@H]1CNC(=O)[C@H](C)c2c1[nH]c1c(Cl)c(Cl)cc(NC(=O)CO)c21` (relative stereo) [Example 159, cis-N-(7,8-dichloro-1,5-dimethyl-2-oxo-1,2,3,4,5,6-hexahydroazepino[4,5-b]indol-10-yl)-2-hydroxyacetamide], the IC50 is 1390 nM in test [1] and 60.6 nM in test [2].

Consider `C[C@H]1C(=O)NCCc2[nH]c3c(Cl)c(Cl)cc(-c4cnn(C)n4)c3c21` (single isomer, unassigned) [Example 37], for which the IC50 in test [1] came to 802 nM; in test [2], 30.4 nM.

For `CC(F)(F)C[C@@H]1CNC(=O)Cc2c1[nH]c1c(Cl)c(Cl)cc(CC#N)c21` (single isomer, unassigned) [Example 139], the IC50 in test [1] stood at 4610 nM; in test [2] it was 824 nM.

Consider `Cc1conc1Nc1cc(Cl)c(Cl)c2[nH]c3c(c12)C(C)C(=O)NCC3` (centres unmarked) [Example 67, 7,8-Dichloro-1-methyl-10-((4-methylisoxazol-3-yl)amino)-3,4,5,6-tetrahydroazepino[4,5-b]indol-2(1H)-one], for which the IC50 was determined as 1030 nM in test [1] and 30.6 nM in test [2].

As to `CC(C)(O)C[C@@H]1CNC(=O)Cc2c1[nH]c1c(Cl)c(Cl)cc(CC#N)c21` (single isomer, unassigned) [Example 106], the IC50 in test [1] stood at 861 nM; in test [2], 188 nM.

Consider `C[C@@H]1C(=O)NCCc2[nH]c3c(Cl)c(Cl)cc(NC(=O)CO)c3c21` (single isomer, unassigned) [Example 12B], for which the values for the IC50 in test [1] and in test [2] were 1700 nM and 748 nM, respectively.

For `CC1C(=O)NCCc2[nH]c3c(Cl)c(Cl)cc(CC#N)c3c21` (centres unmarked) [Example 31, 2-(7,8-Dichloro-1-methyl-2-oxo-1,2,3,4,5,6-hexahydroazepino[4,5-b]indol-10-yl)acetonitrile], the results for the IC50 in test [1] and in test [2] were 1120 nM and 39.5 nM, respectively.

`C[C@@H]1CNC(=O)[C@@H](C)c2c1[nH]c1c(Cl)c(Cl)cc(CC#N)c21` (single isomer, unassigned) [Example 153]: the half-maximal inhibitory concentration (IC50) in test [1] is over 10000 nM; in test [2], 2420 nM.

As to `C[C@H]1C(=O)NCCc2[nH]c3c(Cl)c(Cl)cc(NCCCO)c3c21` (single isomer, unassigned) [Example 53], the IC50 in test [1] turned out to be 471 nM; in test [2], 17.3 nM.

For the compound `CNC(=O)CC1CNC(=O)Cc2c1[nH]c1c(Cl)c(Cl)cc(-c3cnn(C)n3)c21` (centres unmarked) [Example 6, 2-(7,8-Dichloro-10-(2-methyl-2H-1,2,3-triazol-4-yl)-2-oxo-1,2,3,4,5,6-hexahydroazepino[4,5-b]indol-5-yl)-N-methylacetamide], the IC50 in test [1] was over 10000 nM; in test [2], 15.6 nM.

As for `C[C@@H]1CNC(=O)[C@@H](C)c2c1[nH]c1c(Cl)c(Cl)cc(CC#N)c21` (single isomer, unassigned) [Example 150], the IC50 was determined as 2120 nM in test [1] and 25.9 nM in test [2].
